Data published in PubChem BioAssay AID330 (DTP/NCI, 2004).
Where “and” joins values, the source holds several entries; their conditions need not be identical. Identical values can stand only once. Inconclusive results and toxic doses are left out.

System: P388 leukemia ip, CD2F1 mice, survival T/C
Test: NCI In Vivo Anticancer Drug Screen. Data for tumor model P388 Leukemia (intraperitoneal) in CD2F1 (CDF1) mice
Settings: endpoint: median survival time, higher = longer survival
Outline: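 Mice carrying the transplanted tumor received test compound or vehicle. Survival was recorded in each group, and the value is the treated-group measurement divided by that of the vehicle-treated control group.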

[1] = dose: 25.0 mg/kg/injection, schedule: Q01DX009 (ip), vehicle: saline
[2] = dose: 50.0 mg/kg/injection, schedule: Q01DX009 (ip), vehicle: saline
[3] = dose: 100.0 mg/kg/injection, schedule: Q01DX009 (ip), vehicle: saline
[4] = dose: 200.0 mg/kg/injection, schedule: Q01DX009 (ip), vehicle: saline
[5] = dose: 400.0 mg/kg/injection, schedule: Q01DX009 (ip), vehicle: saline
[6] = dose: 50.0 mg/kg/injection, schedule: Q01DX005 (ip), vehicle: saline with Tween-80
[7] = dose: 100.0 mg/kg/injection, schedule: Q01DX005 (ip), vehicle: saline with Tween-80
[8] = dose: 200.0 mg/kg/injection, schedule: Q01DX005 (ip), vehicle: saline with Tween-80
[9] = dose: 200.0 mg/kg/injection, schedule: Q01DX009 (ip), vehicle: saline with Tween-80
[10] = dose: 100.0 mg/kg/injection, schedule: Q04DX003 (ip), vehicle: saline
[11] = dose: 200.0 mg/kg/injection, schedule: Q04DX003 (ip), vehicle: saline
[12] = dose: 400.0 mg/kg/injection, schedule: Q04DX003 (ip), vehicle: saline
[13] = dose: 100.0 mg/kg/injection, schedule: Q01DX009 (ip), vehicle: other
[14] = dose: 200.0 mg/kg/injection, schedule: Q01DX009 (ip), vehicle: other
[15] = dose: 100.0 mg/kg/injection, schedule: Q01DX001 (ip), vehicle: saline with Tween-80
[16] = dose: 200.0 mg/kg/injection, schedule: Q01DX001 (ip), vehicle: saline with Tween-80
[17] = dose: 400.0 mg/kg/injection, schedule: Q01DX001 (ip), vehicle: saline with Tween-80
[18] = dose: 100.0 mg/kg/injection, schedule: Q01DX001 (ip), vehicle: saline
[19] = dose: 200.0 mg/kg/injection, schedule: Q01DX001 (ip), vehicle: saline
[20] = dose: 400.0 mg/kg/injection, schedule: Q01DX001 (ip), vehicle: saline
[21] = dose: 50.0 mg/kg/injection, schedule: Q01DX001 (ip), vehicle: saline with Tween-80
[22] = dose: 50.0 mg/kg/injection, schedule: Q01DX009 (ip), vehicle: Klucel (hydroxypropylcellulose) (HPC)
[23] = dose: 100.0 mg/kg/injection, schedule: Q01DX009 (ip), vehicle: Klucel (hydroxypropylcellulose) (HPC)
[24] = dose: 12.5 mg/kg/injection, schedule: Q01DX009 (ip), vehicle: Klucel (hydroxypropylcellulose) (HPC)

For O=C1c2c3c(c4c(c2C(=O)c2c5c(c6c(c21)CCCC6)CCCC5)CCCC4)CCCC3, the T/C (dose: 7.5 mg/kg/injection, schedule: Q01DX009 (ip), vehicle: saline with Tween-80) was 99 % of control, the T/C (dose: 15.0 mg/kg/injection, schedule: Q01DX009 (ip), vehicle: saline with Tween-80) was 98 % of control and the T/C (dose: 30.0 mg/kg/injection, schedule: Q01DX009 (ip), vehicle: saline with Tween-80) was 103 % of control.

With COC(=N)CCSSCCC(=N)OC the T/C [1] was 102 % of control, the T/C [2] was 105 % of control and the T/C [3] was 106 % of control. The T/C (dose: 100.0 mg/kg/injection, schedule: Q01DX009 (ip), vehicle: suspension in saline) was 101 % of control.

With CNC(=O)Oc1ccccc1OC(C)C the T/C (dose: 7.5 mg/kg/injection, schedule: Q01DX005 (ip), vehicle: Klucel (hydroxypropylcellulose) (HPC)) was 97 % of control and the T/C (dose: 15.0 mg/kg/injection, schedule: Q01DX005 (ip), vehicle: Klucel (hydroxypropylcellulose) (HPC)) was 96 % of control.

In the case of COc1c(C)[nH]ccc1=O, the T/C (dose: 12.5 mg/kg/injection, schedule: Q01DX009 (ip), vehicle: saline) is reported as 102 % of control and 105 % of control, the T/C [1] is reported as 101 % of control and 103 % of control and the T/C [2] is reported as 99 % of control and 102 % of control. The T/C [3] was 99 % of control and 105 % of control, the T/C [4] was 104 % of control and 107 % of control and the T/C [5] was 104 % of control and 106 % of control.

In the case of CCC(C)C(NC=O)C(=O)O (configuration not stated), the T/C [6] is reported as 93 % of control, the T/C [7] is reported as 100 % of control and the T/C [8] is reported as 100 % of control.

O=C(Nc1ccccc1Br)c1cccc([N+](=O)[O-])c1O was tested, and the T/C (dose: 50.0 mg/kg/injection, schedule: Q01DX009 (ip), vehicle: saline with Tween-80) was 107 % of control, the T/C (dose: 100.0 mg/kg/injection, schedule: Q01DX009 (ip), vehicle: saline with Tween-80) was 98 % of control and the T/C [9] was 97 % of control.

In the case of BrC1CCCCC(Br)C12OCCO2 (configuration not stated), the T/C [10] is reported as 107 % of control, the T/C [11] is reported as 104 % of control and the T/C [12] is reported as 106 % of control.

With CC1(C)CCSC(/C=C/c2ccccc2)=N1 the T/C [13] was 109 % of control, the T/C [14] was 115 % of control and the T/C (dose: 400.0 mg/kg/injection, schedule: Q01DX009 (ip), vehicle: other) was 108 % of control.

CCC(c1ccc(OC)cc1)C(NCC(=O)NNC(=S)NCc1ccccc1)c1ccc(OC)cc1 (configuration not stated) was tested, and the T/C [15] was 92 % of control, the T/C [16] was 99 % of control and the T/C [17] was 99 % of control.

In the case of O=C(Nc1ccc(Cl)cc1C(=O)c1ccccn1)c1ccccc1, the T/C (dose: 12.5 mg/kg/injection, schedule: Q04DX003 (ip), vehicle: saline with Tween-80) is reported as 107 % of control, the T/C (dose: 25.0 mg/kg/injection, schedule: Q04DX003 (ip), vehicle: saline with Tween-80) is reported as 93 % of control and the T/C (dose: 50.0 mg/kg/injection, schedule: Q04DX003 (ip), vehicle: saline with Tween-80) is reported as 108 % of control. The T/C (dose: 100.0 mg/kg/injection, schedule: Q04DX003 (ip), vehicle: saline with Tween-80) was 94 % of control and the T/C (dose: 200.0 mg/kg/injection, schedule: Q04DX003 (ip), vehicle: saline with Tween-80) was 97 % of control.

For C=C1C(=O)OC2C1CC(OC(C)=O)/C(C)=C/CCC1(C)OC21 (configuration not stated), the T/C (dose: 4.0 mg/kg/injection, schedule: Q01DX009 (ip), vehicle: Klucel (hydroxypropylcellulose) (HPC)) was 93 % of control, the T/C (dose: 8.0 mg/kg/injection, schedule: Q01DX009 (ip), vehicle: Klucel (hydroxypropylcellulose) (HPC)) was 97 % of control and the T/C (dose: 16.0 mg/kg/injection, schedule: Q01DX009 (ip), vehicle: Klucel (hydroxypropylcellulose) (HPC)) was 96 % of control. The T/C (dose: 32.0 mg/kg/injection, schedule: Q01DX009 (ip), vehicle: Klucel (hydroxypropylcellulose) (HPC)) was 93 % of control.

COc1ccc(-c2c(N)cnc(C(=O)O)c2C)c(OCc2ccccc2)c1OC was tested, and the T/C (dose: 12.5 mg/kg/injection, schedule: Q01DX009 (ip), vehicle: other) was 108 % of control, the T/C (dose: 25.0 mg/kg/injection, schedule: Q01DX009 (ip), vehicle: other) was 105 % of control and the T/C (dose: 50.0 mg/kg/injection, schedule: Q01DX009 (ip), vehicle: other) was 102 % of control. For the same compound, the T/C [13] was 97 % of control and the T/C [14] was 99 % of control.

For CCCCCCCCCCCC1C=CCC1 (configuration not stated), the T/C [18] was 99 % of control, the T/C [19] was 100 % of control and the T/C [20] was 100 % of control.

With CC(=O)OCC1=C(COC(C)=O)C(=O)c2cc3ccccc3cc2C1=O the T/C (dose: 25.0 mg/kg/injection, schedule: Q01DX001 (ip), vehicle: saline with Tween-80) was 92 % of control, the T/C [21] was 92 % of control and the T/C [15] was 94 % of control. For the same compound, the T/C [16] was 101 % of control.

COC(=O)C1c2ccccc2CC(=O)N1NC(=O)c1ccccc1 (configuration not stated) was tested, and the T/C [22] was 98 % of control and the T/C [23] was 94 % of control.

In the case of ClCCN(CCCl)c1ccc(CCCCN2CCCCC2)cc1, the T/C (dose: 6.25 mg/kg/injection, schedule: Q01DX009 (ip), vehicle: Klucel (hydroxypropylcellulose) (HPC)) is reported as 153 % of control and the T/C [24] is reported as 183 % of control.

For CC(=NC(C)(C)C)N1CCCC1, the T/C (dose: 12.5 mg/kg/injection, schedule: Q01DX005 (ip), vehicle: saline) was 102 % of control, the T/C (dose: 25.0 mg/kg/injection, schedule: Q01DX005 (ip), vehicle: saline) was 102 % of control and the T/C (dose: 50.0 mg/kg/injection, schedule: Q01DX005 (ip), vehicle: saline) was 101 % of control. For the same compound, the T/C (dose: 100.0 mg/kg/injection, schedule: Q01DX005 (ip), vehicle: saline) was 95 % of control.

In the case of C=C1C(=O)OC2CC3(C)CCCC(C)C3=CC12 (configuration not stated), the T/C [24] is reported as 100 % of control, the T/C (dose: 25.0 mg/kg/injection, schedule: Q01DX009 (ip), vehicle: Klucel (hydroxypropylcellulose) (HPC)) is reported as 96 % of control and the T/C [22] is reported as 101 % of control. The T/C [23] was 100 % of control.

With CCCN1COC(OCC)C(C)(C)C1 (configuration not stated) the T/C (dose: 25.0 mg/kg/injection, schedule: Q01DX009 (ip), vehicle: saline with Tween-80) was 110 % of control and the T/C [9] was 93 % of control.

In the case of O=C1C(=O)c2ccccc2C(O)=C1CCCc1ccc(OCc2ccccc2)cc1, the T/C (dose: 5.0 mg/kg/injection, schedule: Q01DX009 (ip), vehicle: saline with Tween-80) is reported as 107 % of control, the T/C (dose: 10.0 mg/kg/injection, schedule: Q01DX009 (ip), vehicle: saline with Tween-80) is reported as 117 % of control and the T/C (dose: 20.0 mg/kg/injection, schedule: Q01DX009 (ip), vehicle: saline with Tween-80) is reported as 108 % of control. The T/C (dose: 40.0 mg/kg/injection, schedule: Q01DX009 (ip), vehicle: saline with Tween-80) was 105 % of control.

With c1cncc(-c2c3ccccc3cc3ccc4ccccc4c23)c1 the T/C [6] was 104 % of control, the T/C [7] was 103 % of control and the T/C [8] was 100 % of control.

With CC(N)(Cc1ccc(O)c(O)c1)C(=O)O (configuration not stated) the T/C [2] was 99 % of control and 107 % of control and 110 % of control, the T/C [3] was 99 % of control and 102 % of control and 112 % of control and the T/C [4] was 108 % of control and 96 % of control. The T/C [5] was 105 % of control and 109 % of control and 115 % of control and the T/C (dose: 600.0 mg/kg/injection, schedule: Q01DX009 (ip), vehicle: saline) was 114 % of control and 121 % of control and 94 % of control.

With C/C(=C\c1cc(Cl)ccc1OCC(=O)O)[N+](=O)[O-] the T/C [21] was 108 % of control and 116 % of control, the T/C [15] was 121 % of control and 96 % of control and the T/C [16] was 121 % of control. For the same compound, the T/C [17] was 115 % of control.

For CS(=O)(=O)CCCCCCCCCCS(C)(=O)=O, the T/C [18] was 95 % of control, the T/C [19] was 100 % of control and the T/C [20] was 93 % of control.

With CN1C(=O)C2C(C(=O)O)C2N(C)C1=O (configuration not stated) the T/C (dose: 10.0 mg/kg/injection, schedule: Q04DX003 (ip), vehicle: saline) was 99 % of control, the T/C [10] was 99 % of control and the T/C [11] was 99 % of control and 101 % of control. The T/C [12] was 100 % of control and 101 % of control.

O=C1c2cc3c(-c4ccccc4)oc(-c4ccccc4)c3cc2C(=O)c2c(O)ccc(O)c21 was tested, and the T/C (dose: 6.25 mg/kg/injection, schedule: Q01DX005 (ip), vehicle: saline with Tween-80) was 94 % of control, the T/C (dose: 12.5 mg/kg/injection, schedule: Q01DX005 (ip), vehicle: saline with Tween-80) was 94 % of control and the T/C (dose: 25.0 mg/kg/injection, schedule: Q01DX005 (ip), vehicle: saline with Tween-80) was 94 % of control. For the same compound, the T/C [8] was 99 % of control.
